Test results as given in US20230167093A1, “COMPOUNDS AND METHODS FOR MODULATING SPLICING” (REMIX THERAPEUTICS INC., priority 2020, published 2023).

Experiments:
Type in all cases: cell-based
HTT AJ mRNA = experiment: RT-qPCR splicing assay, HTT alternative junction (AJ) mRNA increase; conditions: A673 or K562 cells, 24 hours compound treatment, top dose 10 uM; concentration having 50% response in AJ increase
Experimental: (§1) Compounds described herein were used to modulate RNA transcript abundance in cells. The expression of a target mRNA was measured by detecting the formation of an exon-exon junction in the canonical transcript (CJ). A compound mediated exon-inclusion event was detected by observing an increase in formation of a new junction with an alternative exon (AJ). Real-time qPCR assays were used to detect these splicing switches and interrogate the potency of various compounds towards different target genes. A high-throughput real time quantitative PCR (RT-qPCR) assay was developed to measure these two isoforms of the mRNA (CJ and AJ) for an exemplary gene, HTT, together with a control housekeeping gene, GAPDH or GUSB or PPIA, used for normalization. Briefly, the A673 or K562 cell line was treated with various compounds described herein (e.g., compounds of Formula (I) or (II)). After treatment, the levels of the HTT mRNA targets were determined from each sample of cell lysate by cDNA synthesis followed by qPCR.
(§2) The A673 cell line was cultured in DMEM with 10% FBS. Cells were diluted with full growth media and plated in a 96-well plate (15,000 cells in 100 ul media per well). The plate was incubated at 37° C. with 5% CO2 for 24 hours to allow cells to adhere. An 11-point 3-fold serial dilution of the compounds was made in DMSO then diluted in media in an intermediate plate. Compounds were transferred from the intermediate plate to the cell plate with the top dose at a final concentration of 10 uM in the well. Final DMSO concentration was kept at or below 0.25%. The cell plate was returned to the incubator at 37° C. with 5% CO2 for an additional 24 hours.
(§3) The K562 cell line was cultured in IMDM with 10% FBS. For K562, cells were diluted with full growth media and plated in either a 96-well plate (50,000 cells in 50 uL media per well) or a 384-well plate (8,000-40,000 cells in 45 uL media per well). An 11-point 3-fold serial dilution of the compounds were made in DMSO then diluted in media in an intermediate plate. Compound was transferred from the intermediate plate to the cell plate with the top dose at a final concentration of 10 uM in the well. Final DMSO concentration was kept at or below 0.25%. Final volume was 100 uL for 96-well plate and 50 uL for 384-well plate. The cell plate was then placed in an incubator at 37° C. with 5% CO2 for 24 hours.
(§4) The cells were then gently washed with 50 uL-100 uL cold PBS before proceeding to addition of lysis buffer. 30 uL-50 uL of room temperature lysis buffer with DNAse I (and optionally RNAsin) was added to each well. Cells were shaken/mixed thoroughly at room temperature for 5-10 minutes for lysis to take place and then 3 uL-5 uL of room temperature stop solution was added and wells were shaken/mixed again. After 2-5 minutes, the cell lysate plate was transferred to ice for RT-qPCR reaction setup. The lysates could also be frozen at −80° C. for later use.
(§5) In some cases, a direct lysis buffer was used. An appropriate volume of 3× lysis buffer (10 mM Tris, 150 mM NaCl, 1.5%-2.5% Igepal and 0.1-1 U/uL RNAsin, pH 7.4) was directly added to either K562 or A673 cells in media and mixed by pipetting 3 times. The plates were then incubated at room temperature with shaking/rocking for 20-50 minutes to allow for lysis to take place. After this time, the cell lysate plate was transferred to ice to set up for the RT-qPCR reactions. The lysates could also be frozen at −80° C. for later use.
(§6) To set up 10 uL RT-qPCR reactions, cell lysates were transferred to 384-well qPCR plates containing the master mix according to the table below. The plates were sealed, gently vortexed, and spun down before the run. The volumes were adjusted accordingly in some instances where the reaction was carried in 20 uL. The table below summarizes the components of the RT-qPCR reactions:
(§7) The RT-qPCR reaction was performed using a QuantStudio (ThermoFisher) under the following fast cycling conditions. […]

HTT CJ mRNA [1] = experiment: RT-qPCR splicing assay, HTT canonical junction (CJ) mRNA decrease; conditions: A673 or K562 cells, 24 hours compound treatment, top dose 10 uM; concentration having 50% response in CJ decrease
Experimental: as §1, §2, §3, §4, §5, §6, §7

HTT CJ mRNA [2] = experiment: Gene panel canonical junction qPCR assay, HTT; conditions: protocol as above, concentration having 50% response in CJ decrease, read-out: HTT IC50 (decrease in CJ mRNA levels)
Experimental: as §1, §2, §3, §4, §5, §6, §7

SMN2 CJ mRNA = experiment: Gene panel canonical junction qPCR assay, SMN2; conditions: protocol as above, concentration having 50% response in CJ decrease, read-out: SMN2 IC50 (decrease in CJ mRNA levels)
Experimental: as §1, with “After treatment, the levels of the HTT mRNA targets were determined from each sample of cell lysate by cDNA synthesis followed by qPCR.” left out
as §2, §3, §4, §5, §6
The RT-qPCR reaction was performed using a QuantStudio (ThermoFisher) under the following fast cycling conditions. All samples and standards were analyzed at least in duplicate. […]

Target C CJ mRNA = experiment: Gene panel canonical junction qPCR assay, Target C; conditions: protocol as above, concentration having 50% response in CJ decrease, read-out: Target C IC50 (decrease in CJ mRNA levels)
Experimental: as §1, §2, §3, §4, §5, §6, §7

IC50 (HTT CJ mRNA [2]) [µM]	IC50 (SMN2 CJ mRNA) [µM]	IC50 (Target C CJ mRNA) [µM]	SMILES	AC50 (HTT AJ mRNA) [µM]	AC50 (HTT CJ mRNA [1]) [µM]
> 10	> 10	> 10	Cc1cn2nc(-n3cnc4ccc(N5CCNCC5)cc4c3=O)cc(C)c2n1 [Compound 201, 3-(2,8-dimethylimidazo[1,2-b]pyridazin-6-yl)-6-(piperazin-1-yl)quinazolin-4(3H)-one]	> 10	> 10
> 10	> 10	> 10	Cc1cc(-c2ccc3c(=O)[nH]c(N4CCNCC4)nc3c2)cc2cn(C)nc12 [Compound 211, 7-(2,7-dimethyl-2H-indazol-5-yl)-2-(piperazin-1-yl)quinazolin-4(3H)-one]	> 10	> 10
